Data taken from US20160279063A1, “COMPOSITION OF EXCIPIENTS AND PHARMACEUTICAL FORMS WITH SUSTAINED RELEASE AND INCREASED BIOAVAILABILITY OF ANTIBACTERIAL DRUGS, ANTICOCCIDIAL DRUGS AND OTHER DRUGS FOR COMMERCIAL POULTRY AND PIGS” (priority 2012, published 2016).
Counter-ions that a name gives are not always drawn. Like-named read-outs stand apart in the source and are kept apart here.

Columns and labels:
[1] = cited from earlier work
[2] = Florphenicol pharmacokinetics, FOLA vs commercially available, 20 mg/kg, 3 days; format: in vivo, commercial poultry; conditions: along three days, 20 mg/kg in food, when included in FOLA system
Experimental: Note generation of concentrations higher than traditional system (Cmax, MRT and AUC), which makes suitable its PK/PD ratio when included in FOLA system.
Note a generation of concentrations lower than 3 μg/mL, making suitable its PK/PD ratio when included in FOLA system.
Tests in Commercial Poultry
Variables disclosed below are pharmacokinetically obtained for florphenicol in FOLA and a commercially available reference preparation administered during 3 days: […]

[3] = pigs, cited from earlier work; for F (bioavailability): conventional oral administration
[4] = Background bioavailability and elimination of drugs in pigs; conditions: associated to FOLA system, single dose in the morning with food
From the text: Serum concentrations are not reached by night and in breeding sows doses should be 3000 ppm as they only eat an average of 2 kg with a weight of 300 kg. This is obviously not performed as they would reject food. • Tylosin and tiamulin are often underdosed due to costs. […] FOLA system achieves that easily even better than if that would have been injected. • Provision of phosphomycin in food is not useful since its F is below 20% and is eliminated in a few hours. Associated to FOLA system the results allow a single dose in the morning with food reaching F close to 100% and during 24 hours.

[5] = humans; cited from earlier work
[6] = Tylosin tartrate pharmacokinetics, FOLA vs commercially available, 200 ppm in food; format: in vivo, commercial poultry; conditions: when included in FOLA system, food ad libitum, poultry of 1.9 kg
From the text: Note generation of concentrations quite higher than traditional system (Cmax, MRT and AUC), which makes suitable its PK/PD ratio when included in FOLA system.
For Tylosin in commercial poultry, very high concentrations are achieved when FOLA system is used and which remain with therapeutic effect along night as shown in charts of FIGS. 4a and 4b. Variables disclosed below are pharmacokinetically obtained for tylosin in FOLA and a commercially available reference preparation: […]

[7] = commercial poultry, conventional oral administration

## CC[C@H]1OC(=O)[C@H](C)[C@@H](O[C@H]2C[C@@](C)(OC)[C@@H](O)[C@H](C)O2)[C@H](C)[C@@H](O[C@@H]2O[C@H](C)C[C@H](N(C)C)[C@H]2O)[C@](C)(O)C[C@@H](C)C(=O)[C@H](C)[C@@H](O)[C@]1(C)O [Erithromycin]
[1]; in vivo, po
  F (bioavailability): 18%

## CS(=O)(=O)c1ccc([C@@H](O)[C@@H](CF)NC(=O)C(Cl)Cl)cc1 [Florphenicol]
[2]
  serum concentrations (FIG. 8b): lower than 3 μg/mL

## CCC[C@@H]1C[C@@H](C(=O)N[C@@H]([C@H]2O[C@H](SC)[C@H](O)[C@@H](O)[C@H]2O)[C@@H](C)O)N(C)C1 [Lincomycin]
[3]
  life: ≥ 20%

## CN(C)[C@@H]1C(O)=C(C(N)=O)C(=O)[C@@]2(O)C(O)=C3C(=O)c4c(O)cccc4[C@@](C)(O)[C@H]3[C@H](O)[C@@H]12 [Oxytetracycline]
[1]; [7]
  F (bioavailability): 20%
[1]; commercial poultry, conventional oral administration, listed as oxytetracycline base
  F (bioavailability): around 20%

## C[C@@H]1O[C@@H]1P(=O)(O)O [Phosphomycin]
[4]
  F (bioavailability): ~100%
[3]
  F (bioavailability): below 20%
[1]; in water, usual doses 10-40 mg/kg/day
  time to removal from plasma and tissues: 6 to 8 h

## CN[C@@H]1[C@H](O)[C@H](NC)[C@H]2O[C@@]3(O)C(=O)C[C@@H](C)O[C@H]3O[C@@H]2[C@H]1O [Spectinomycin]
[3]
  F (bioavailability): 7%

## COc1cc(Cc2cnc(N)nc2N)cc(OC)c1OC [TMP, trimethoprim]
[3]
  elimination half-life: 1 h
[1]; birds
  T½β: 1 h
[5]
  T½β: 10 h

## CC[C@H]1OC(=O)C[C@@H](O)[C@H](C)[C@@H](O[C@@H]2O[C@H](C)[C@@H](O[C@H]3C[C@@](C)(O)[C@@H](O)[C@H](C)O3)[C@H](N(C)C)[C@H]2O)[C@@H](CC=O)C[C@@H](C)C(=O)/C=C/C(C)=C/[C@@H]1CO[C@@H]1O[C@H](C)[C@@H](O)[C@@H](OC)[C@H]1OC [Tylosin]
[1]; [7]
  F (bioavailability): < 40%

## CN(C)[C@@H]1C(O)=C(C(N)=O)C(=O)[C@@]2(O)C(O)=C3C(=O)c4c(O)ccc(Cl)c4[C@@](C)(O)[C@H]3C[C@@H]12 [chlortetracycline]
[1]; [7]
  F (bioavailability): 20%

## CC[C@H]1OC(=O)C[C@@H](O)[C@H](C)[C@@H](O[C@@H]2O[C@H](C)[C@@H](O[C@H]3C[C@@](C)(O)[C@@H](O)[C@H](C)O3)[C@H](N(C)C)[C@H]2O)[C@@H](CC=O)C[C@@H](C)C(=O)/C=C/C(C)=C/[C@@H]1CO[C@@H]1O[C@H](C)[C@@H](O)[C@@H](OC)[C@H]1OC [tylosin tartrate]
[6]
  concentrations reached (FIG. 4b): exceeding 1.5 μg/mL
